Where two headings read alike, the source gives them in different places.
Assays:
carboxylesterases = assay: General carboxylesterase inhibition; assay type: biochemical
Procedure: Carboxylesterase (CE) inhibition was determined by a spectroscopic assay using o-nitrophenyl acetate (o-NPA) as a substrate. Recombinant CEs produced from expression in Spodoptera frugiperda Sf9 insect cells via baculovirus were purified from serum-free culture media for the enzyme inhibition studies. Enzymes were incubated in 200 μl of 50 mM Hepes (pH 7.4) containing 3 mM o-NPA. Conversion of the o-NPA to nitrophenol was monitored by measuring the change in the absorbance at 420 nm. Absorbance readings were taken every 15 seconds for 2 minutes, and data transferred to a computer data spreadsheet. […] The final DMSO concentration was always 1% or less. […] The above procedure was then repeated using the same assay, with inhibitor concentrations ranging from 1 nM to 100 μM. Results were then transferred to Prism software (GraphPad Software, Inc., San Diego, Calif.) and Ki values determined using sigmoidal curve fits of the data. Routinely, all analyses were performed in duplicate, and Ki values determined using at least 8 inhibitor concentrations.

[1] = target: T1, rabbit liver carboxylesterase (rCE) (Oryctolagus cuniculus, UniProt P12337); assay: biochemical; assay type: biochemical; conditions: o-NPA as substrate
T1 sequence (P12337 19-565): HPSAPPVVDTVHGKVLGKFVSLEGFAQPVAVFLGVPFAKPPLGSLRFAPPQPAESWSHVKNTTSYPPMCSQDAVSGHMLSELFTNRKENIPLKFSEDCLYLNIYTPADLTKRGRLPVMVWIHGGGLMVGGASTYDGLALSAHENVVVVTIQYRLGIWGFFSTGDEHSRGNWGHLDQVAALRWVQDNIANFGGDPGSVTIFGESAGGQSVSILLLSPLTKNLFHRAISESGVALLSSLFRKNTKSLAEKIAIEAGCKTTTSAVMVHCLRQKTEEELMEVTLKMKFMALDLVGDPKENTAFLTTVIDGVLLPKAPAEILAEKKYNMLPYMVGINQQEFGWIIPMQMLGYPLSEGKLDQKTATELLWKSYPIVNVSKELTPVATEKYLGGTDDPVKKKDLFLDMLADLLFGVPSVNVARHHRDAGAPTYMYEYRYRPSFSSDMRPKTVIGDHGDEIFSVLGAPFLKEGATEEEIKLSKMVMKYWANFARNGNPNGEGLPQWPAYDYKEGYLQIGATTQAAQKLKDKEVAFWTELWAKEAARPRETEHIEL

[2] = target: human butyrylcholinesterase (hBuChE) (Homo sapiens, UniProt P06276); assay: biochemical
[3] = target: T2, human acetylcholinesterase (hAcChE) (Homo sapiens, UniProt P22303); assay: biochemical; assay type: biochemical
T2 construct: purchased Sigma Biochemicals (St. Louis, Mo.)
Procedure: Data was transferred to GraphPad Prism software, and Ki values were calculated as described in the Example above.

[4] = target: T3, human liver carboxylesterase (hCE1) (Homo sapiens, UniProt P23141); assay: biochemical; assay type: biochemical; conditions: o-NPA as substrate
T3 sequence (P23141 18-567): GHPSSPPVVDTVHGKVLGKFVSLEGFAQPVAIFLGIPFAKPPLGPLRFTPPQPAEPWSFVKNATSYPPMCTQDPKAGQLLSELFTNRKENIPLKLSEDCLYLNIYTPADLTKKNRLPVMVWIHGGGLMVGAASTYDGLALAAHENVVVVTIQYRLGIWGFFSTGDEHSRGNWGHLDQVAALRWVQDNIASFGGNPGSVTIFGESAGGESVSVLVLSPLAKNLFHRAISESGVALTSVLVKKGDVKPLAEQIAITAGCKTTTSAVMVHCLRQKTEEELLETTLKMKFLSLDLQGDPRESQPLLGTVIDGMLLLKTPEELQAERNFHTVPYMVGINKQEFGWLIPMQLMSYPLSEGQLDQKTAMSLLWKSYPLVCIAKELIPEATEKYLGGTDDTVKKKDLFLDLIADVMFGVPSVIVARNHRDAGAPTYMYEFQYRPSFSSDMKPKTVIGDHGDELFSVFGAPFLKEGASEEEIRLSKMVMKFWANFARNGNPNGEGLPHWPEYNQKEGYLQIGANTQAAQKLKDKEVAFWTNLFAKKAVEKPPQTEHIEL

[5] = target: T4, human small intestine carboxylesterase (hiCE) (Homo sapiens, UniProt O00748); assay: biochemical; assay type: biochemical; conditions: for Ki / Ki (hCE1)/Ki (hiCE): o-NPA as substrate; for Ki: Table 5, read-out: Ki hiCE; for Ki (hCE1)/Ki (hiCE): selectivity ratio
T4 sequence (O00748 27-559): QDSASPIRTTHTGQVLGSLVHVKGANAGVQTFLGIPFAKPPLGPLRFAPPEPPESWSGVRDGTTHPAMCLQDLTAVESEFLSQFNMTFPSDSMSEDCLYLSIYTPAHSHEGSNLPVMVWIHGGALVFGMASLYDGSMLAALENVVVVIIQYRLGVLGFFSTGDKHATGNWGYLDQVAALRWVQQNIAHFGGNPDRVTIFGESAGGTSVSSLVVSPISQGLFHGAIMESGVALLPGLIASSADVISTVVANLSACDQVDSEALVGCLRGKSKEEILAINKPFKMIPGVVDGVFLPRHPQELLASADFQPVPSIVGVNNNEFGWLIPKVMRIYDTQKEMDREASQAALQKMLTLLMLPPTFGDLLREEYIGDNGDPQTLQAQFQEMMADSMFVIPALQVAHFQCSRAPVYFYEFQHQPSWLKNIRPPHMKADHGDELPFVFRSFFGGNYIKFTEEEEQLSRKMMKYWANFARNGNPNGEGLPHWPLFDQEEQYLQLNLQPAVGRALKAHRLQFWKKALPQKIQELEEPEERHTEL

[6] = target: T5, human intestinal carboxylesterase in U373MGhiCE cells (Homo sapiens, UniProt O00748); assay: Inhibition of intracellular carboxylesterase in U373MGhiCE cells; assay type: cell-based
T5 construct: expressed in transfected cells; host or cells: U373MG human glioma cells (U373MGhiCE)
T5 sequence (O00748 27-559): T4 sequence (O00748 27-559)
Procedure: To monitor the ability of the compounds to cross the cell membrane and inhibit carboxylesterase activity intracellularly, an assay using human tumor cells expressing hiCE was devised. U373MGhiCE (a human glioma cell line transfected with a plasmid expressing hiCE) were plated in T25 flasks and allowed to grow to confluency (approximately 2-5×10^5 cells). Inhibitors were then added at a final concentration of […], and incubation allowed to continue for 1 hour. At this time, the cells were washed extensively with 5 ml of complete media and 2×5 ml of Hanks balanced salt solution, and cell extracts were prepared. Carboxylesterase activity was then determined using o-NPA as a substrate.
Table 8 sets forth the level of intracellular enzyme inhibition following incubation of human glioblastoma tumor cells expressing human intestinal carboxylesterase with 10 μM of each compound identified in Table 3.

hiCE = target: T6, hiCE (Homo sapiens, UniProt O00748); assay: Inhibition of hiCE-mediated activation of CPT-11 (SN-38 by HPLC); assay type: biochemical
T6 sequence (O00748 27-559): T4 sequence (O00748 27-559)
Procedure: Since the sulphonamide compounds identified herein are competitive inhibitors of hiCE, their activity is dependant upon the substrate used. To access the ability of these compounds to inhibit the hiCE-mediated activation of CPT-11, Ki values were determined using CPT-11 as the substrate.
CPT-11 concentrations were fixed at […], and inhibitor concentrations varied from 1 nM to 10 μM. Following incubation for an hour at 37° C., the levels of SN-38 in the reaction mixture was determined by High Performance Liquid Chromatography (HPLC).

[7] = butyrylthiocholine as substrate, Table 6, read-out: hBuChE Ki
[8] = acetylthiocholine as substrate, Table 6, read-out: hAcChE Ki
[9] = Table 6, read-out: hCE1 Ki ± SE
[10] = CPT-11 as substrate (100 μm), 1 hour at 37° C., read-out: Ki hiCE
[11] = acetylthiocholine substrate, Table 5, read-out: Ki hAcChE

Chain of human butyrylcholinesterase (hBuChE) (P06276 29-602): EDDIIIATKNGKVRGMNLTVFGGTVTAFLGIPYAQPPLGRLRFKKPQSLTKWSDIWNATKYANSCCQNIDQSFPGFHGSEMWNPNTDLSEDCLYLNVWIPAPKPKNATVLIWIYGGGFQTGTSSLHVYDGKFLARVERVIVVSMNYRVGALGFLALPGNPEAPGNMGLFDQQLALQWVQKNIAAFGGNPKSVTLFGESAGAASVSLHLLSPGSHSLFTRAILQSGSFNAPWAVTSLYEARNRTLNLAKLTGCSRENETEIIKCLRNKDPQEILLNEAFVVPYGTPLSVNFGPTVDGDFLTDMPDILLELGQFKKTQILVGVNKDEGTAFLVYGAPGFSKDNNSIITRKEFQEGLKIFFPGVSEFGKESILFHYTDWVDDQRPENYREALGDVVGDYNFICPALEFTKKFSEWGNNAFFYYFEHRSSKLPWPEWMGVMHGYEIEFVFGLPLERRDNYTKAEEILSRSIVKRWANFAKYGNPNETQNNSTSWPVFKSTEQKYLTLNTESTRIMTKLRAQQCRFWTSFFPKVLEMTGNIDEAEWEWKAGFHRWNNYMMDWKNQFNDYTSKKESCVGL
T2 sequence (P22303 32-614): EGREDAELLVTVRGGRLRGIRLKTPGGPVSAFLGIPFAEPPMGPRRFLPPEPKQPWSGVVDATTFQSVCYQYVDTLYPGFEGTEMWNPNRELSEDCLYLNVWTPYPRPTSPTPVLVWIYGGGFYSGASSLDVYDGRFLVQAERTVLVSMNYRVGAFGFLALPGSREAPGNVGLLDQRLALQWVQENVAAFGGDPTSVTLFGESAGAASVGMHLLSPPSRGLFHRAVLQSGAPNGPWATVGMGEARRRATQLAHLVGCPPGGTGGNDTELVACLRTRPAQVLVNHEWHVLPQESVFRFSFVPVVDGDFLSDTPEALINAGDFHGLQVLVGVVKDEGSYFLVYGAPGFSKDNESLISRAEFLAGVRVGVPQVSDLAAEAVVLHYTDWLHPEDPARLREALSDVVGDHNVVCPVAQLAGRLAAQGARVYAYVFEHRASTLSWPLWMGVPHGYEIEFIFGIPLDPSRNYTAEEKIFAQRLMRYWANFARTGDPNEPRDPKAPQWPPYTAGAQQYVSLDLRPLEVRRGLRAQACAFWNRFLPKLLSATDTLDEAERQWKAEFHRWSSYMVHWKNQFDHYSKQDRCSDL

| Structure (SMILES) | found to be general carboxylesterase inhibitors (carboxylesterases) | Ki ([1]; Table 6, read-out: rCE Ki ± SE) [nM] | Ki [3, 8] [nM] | Ki [4, 9] [nM] | Ki [2] [nM] | further results |
| --- | --- | --- | --- | --- | --- | --- |
| O=C(O)c1ccc(C(=O)C(=O)c2ccccc2)cc1 [Compound 1, 4-[oxo(phenyl)acetyl]benzoic acid] | general carboxylesterase inhibitors | 64 ± 6.2 | > 100000 | 524 ± 46 |  | Ki [2, 7]: > 100000 nM |
| O=C(C(=O)c1ccc(CBr)cc1)c1ccccc1 [Compound 3] | general carboxylesterase inhibitors | 15 ± 1.6 |  | 77.6 ± 5.5 | > 100000 |  |
| Cc1ccc(C(=O)C(=O)c2ccccc2)cc1C [Compound 5, 1-(3,4-dimethylphenyl)-2-phenylethane-1,2-dione] | general carboxylesterase inhibitors | 108 ± 8.8 | > 100000 | 99.1 ± 10 | > 100000 |  |
| COc1ccc(C(=O)C(=O)c2ccccc2)cc1 [Compound 6, 1-(4-methoxyphenyl)-2-2phenylethane-1,2-dione] | general carboxylesterase inhibitors | 200 ± 60 | > 100000 | 175 ± 8.5 | > 100000 |  |
| Cc1ccc(C(=O)C(=O)c2ccccc2)cc1[N+](=O)[O-] [Compound 7, 1-(4-methyl-3-nitrophenyl)-2-phenylethane-1,2-dione] | general carboxylesterase inhibitors | 11.9 ± 1.1 | > 100000 | 295 ± 9.6 | > 100000 |  |
| O=C(C(=O)c1ccc([N+](=O)[O-])cc1)c1ccccc1 [Compound 14, 1-(4-nitrophenyl)-2-phenylethane-1,2-dione] | general carboxylesterase inhibitors | 21.7 ± 2.5 | > 100000 | 215 ± 24 | > 100000 |  |
| O=C(C(=O)c1ccc(F)cc1)c1ccc(F)cc1 [Compound 16, 1,2-bis(4-fluorophenyl)ethane-1,2-dione] | general carboxylesterase inhibitors |  |  |  |  |  |
| Cc1ccc(C(=O)C(=O)c2ccc(C)cc2)cc1 [Compound 17, 1,2-bis(4-methylphenyl)ethane-1,2-dione] | general carboxylesterase inhibitors | 49.6 ± 6.8 | > 100000 | 532 ± 35 |  | Ki [2, 7]: > 100000 nM |
| O=C(C(=O)c1cc(F)cc(F)c1)c1cc(F)cc(F)c1 [Compound 19, 1,2-bis(3,5-difluorophenyl)ethane-1,2-dione] | general carboxylesterase inhibitors |  |  |  |  |  |
| O=C(C(=O)c1cc(F)c(F)c(F)c1)c1cc(F)c(F)c(F)c1 [Compound 20, 1,2-bis(3,4,5-trifluorophenyl)ethane-1,2-dione] | general carboxylesterase inhibitors |  |  |  |  |  |
| Cc1ccc(C(=O)C(=O)c2ccc(Cl)cc2)cc1 [Compound 22, 1-(4-chlorophenyl)-2-(4-methylphenyl)ethane-1,2-dione] | general carboxylesterase inhibitors | 16.2 ± 1.7 |  | 160 ± 32 | > 100000 |  |
| O=C(C(=O)c1cccs1)c1cccs1 [Compound 23, 1,2-dithien-2-yl-ethane-1,2-dione] | general carboxylesterase inhibitors |  |  |  |  |  |
| O=S(=O)(Nc1c(Cl)c(Cl)c(NS(=O)(=O)c2ccccc2)c(Cl)c1Cl)c1ccccc1 [Compound 44, N-{2,3,5,6-tetrachloro-4-[(phenylsulfonyl)amino]phenyl}benzene sulfonamide] |  |  |  |  | > 100000 | change in apparent Vmax of hiCE ([5]; 149 nM or 447 nM inhibitor): no change; Ki [5]: 451 ± 39 nM; Ki (hCE1)/Ki (hiCE) [5]: >220; inhibition at 10 µM [6]: 0.6%; Ki ([1]; Table 5, read-out: Ki rCE): > 100000 nM; Ki (hiCE; [10]): > 100000 nM; Ki [3, 11]: > 100000 nM; Ki ([4]; Table 5, read-out: Ki hCE1): > 100000 nM |
| O=S(=O)(Nc1ccc(NS(=O)(=O)c2ccc(Cl)cc2)cc1)c1ccc(Cl)cc1 [Compound 45, 4-chloro-N-(4-{[(4-chlorophenyl)sulfonyl]amino}phenyl) benzenesulfonamide] |  |  |  |  | > 100000 | Ki [5]: 53.3 ± 5.5 nM; Ki (hCE1)/Ki (hiCE) [5]: >250; inhibition at 10 µM [6]: 7.5%; Ki ([1]; Table 5, read-out: Ki rCE): 1200 nM; Ki (hiCE): 141 ± 64 nM; Ki [3, 11]: > 100000 nM; Ki ([4]; Table 5, read-out: Ki hCE1): 13700 nM |
| O=S(=O)(Nc1ccc(Oc2ccccc2)cc1)c1ccc(Br)cc1 [Compound 46, 4-bromo-N-(4-phenoxyphenyl)benzenesulfonamide] |  |  |  |  | > 100000 | Ki [5]: 165 ± 33 nM; Ki (hCE1)/Ki (hiCE) [5]: >600; inhibition at 10 µM [6]: 0%; Ki ([1]; Table 5, read-out: Ki rCE): 319 ± 37 nM; Ki (hiCE; [10]): > 100000 nM; Ki [3, 11]: > 100000 nM; Ki ([4]; Table 5, read-out: Ki hCE1): > 100000 nM |
| O=C(NC(Cc1ccccc1)C(=O)Oc1ccc2ccccc2c1)c1ccccc1 (centres unmarked) [Compound 57, 2-Benzoylamino-3-phenyl-propionic acid naphthalene-2-yl ester] |  |  |  |  |  | Ki [5]: 61 nM; inhibition at 10 µM [6]: 24.2%; Ki [3, 11]: > 100000 nM; Ki ([4]; Table 5, read-out: Ki hCE1): > 100000 nM |
